Assay results from patent US20170232083A1, “METHODS OF DIAGNOSIS AND TREATMENT OF CELIAC DISEASE IN CHILDREN” (priority 2014, published 2017).

What was measured:
[1] = test system: PBMC (polyclonal gluten-specific T cells) of paediatric and adult CD patients; assay: IFN-γ ELISpot of PBMC after 3 day oral wheat challenge (SFU, % of maximal peptide response, dominance scores, EC50; Examples 5-6); type: cell-based, human; details: for Dominance score 3-5yrs (n = 9): CD children 3-5yrs, n = 9, following wheat challenge; for Dominance score 3-5yrs (n = 9) / Dominance score 6-10yrs (n = 10) / Dominance score 11-18yrs (n = 11): mean percentage of maximal peptide response; for Dominance score 6-10yrs (n = 10): CD children 6-10yrs, n = 10, following wheat challenge; for Dominance score 11-18yrs (n = 11): CD children 11-18yrs, n = 11, following wheat challenge; for Dominance score Mean all ages: CD children, following wheat challenge (Table 9); for Dominance scores 3-5 yrs: children with celiac disease 3-5 yrs after wheat challenge (Table 14); for Dominance scores 6-10 yrs: children with celiac disease 6-10 yrs after wheat challenge (Table 14); for Dominance scores 11-18 yrs: children with celiac disease 11-18 yrs after wheat challenge (Table 14); for Dominance scores Mean all ages: mean of all subjects (Table 14); for IFN-γ ELISpot response: after oral wheat challenge
[2] = test system: PBMC (polyclonal gluten-specific T cells) of paediatric and adult CD patients; details: corresponding adult data shown for comparison (14); cited from earlier work
[3] = patient A, 11-17 yrs, cut-off 10 SFU
[4] = patient D, max peptide 30.5 SFU
[5] = patient E, H, 11-17 yrs, cut-off 10 SFU
[6] = patient F, 11-17 yrs, cut-off 10 SFU
[7] = patient G, 11-17 yrs, cut-off 10 SFU
[8] = patient H (HLA-DQ2.5 homozygote), 3-5yrs, cut-off 10 SFU
[9] = patient H, 11-17 yrs, cut-off 10 SFU
[10] = patient ID not given, 11-17 yrs, cut-off 10 SFU
[11] = patient ID not given, max peptide 95 SFU
[12] = patient N, 3-5yrs, cut-off 10 SFU
[13] = patient P, 11-17 yrs, cut-off 21.6 SFU
[14] = patient Q, 11-17 yrs, cut-off 10 SFU
[15] = patient U, H, 11-17 yrs, cut-off 10 SFU
[16] = patient V, 6-10 yrs, cut-off 10 SFU
[17] = patient Y, 6-10 yrs, cut-off 10 SFU
[18] = patient eleven, 6-10 yrs, cut-off 10 SFU
[19] = patient five, max peptide 48 SFU
[20] = patient four, 3-5yrs, cut-off 10 SFU
[21] = patient seven, 6-10 yrs, cut-off 10.5 SFU
[22] = patient ten, 3-5yrs, cut-off 10 SFU
[23] = patient three, 6-10 yrs, cut-off 10.5 SFU
[24] = patient twelve, 11-17 yrs, cut-off 10 SFU
[25] = patient two, 3-5yrs, cut-off 10 SFU
[26] = patient two, max peptide 60 SFU

QPFPQPEQPFPWQ [Peptide W03, contains DQ2.5-glia-w1 and w2]
magnitude of T cell responses, HLA-DQ2.5 homozygous vs heterozygous [1]: significantly greater
Dominance score 3-5yrs (n = 9) [1]: 66.6
Dominance score 6-10yrs (n = 10) [1]: 51.5
Dominance score 11-18yrs (n = 11) [1]: 46.5
Dominance score Mean all ages [1]: 54.2
dominance hierarchy across all age groupings ([1]; Example 5): most dominant three peptides
CD children responding (polyclonal T cells after oral wheat challenge) ([1]; Example 5, n=22): 68.2%
dominance hierarchy across all age groups ([1]; Example 6): most dominant four peptides
CD children responding (polyclonal T cells induced by oral wheat challenge) ([1]; Example 6, n=22): 68%
response to native vs deamidated form ([1]; all age groups): Deamidation enhanced the response
Dominance scores 3-5 yrs [1]: 65
Dominance scores 6-10 yrs [1]: 51
Dominance scores 11-18 yrs [1]: 46
Dominance scores Mean all ages [1]: 54
IFN-γ ELISpot responses Day 0 prior to vs Day 6 after wheat challenge ([1]; p<0.05, Kruskal Wallis): Significant gluten-specific responses were observed on Day 6 only
IFN-γ ELISpot response [1, 3]: 5 SFU
Significant response as percentage of maximal peptide SFU [1, 4]: ′′′ (41-70% = ′′′)
IFN-γ ELISpot response [1, 5]: 61 SFU
Significant response as percentage of maximal peptide SFU ([1]; patient E, max peptide 224 SFU): ′′ (21-40% = ′′)
IFN-γ ELISpot response [1, 6]: 77 SFU
Significant response as percentage of maximal peptide SFU ([1]; patient F, max peptide 178 SFU): ′′′ (41-70% = ′′′)
IFN-γ ELISpot response [1, 7]: 5 SFU
IFN-γ ELISpot response [1, 8]: 48 SFU
IFN-γ ELISpot response [1, 9]: 6 SFU
IFN-γ ELISpot response [1, 10]: 83 SFU
Significant response as percentage of maximal peptide SFU [1, 11]: + (>70% = +)
Significant response as percentage of maximal peptide SFU ([1]; patient J, max peptide 196 SFU): ′′′ (41-70% = ′′′)
Significant response as percentage of maximal peptide SFU ([1]; patient K, max peptide 53 SFU): ′′ (21-40% = ′′)
Significant response as percentage of maximal peptide SFU ([1]; patient M, max peptide 48 SFU): + (>70% = +)
IFN-γ ELISpot response [1, 12]: 19 SFU
Significant response as percentage of maximal peptide SFU ([1]; patient N, max peptide 19 SFU): + (>70% = +)
IFN-γ ELISpot response [1, 13]: 43 SFU
Significant response as percentage of maximal peptide SFU ([1]; patient P, max peptide 64 SFU): ′′′ (41-70% = ′′′)
IFN-γ ELISpot response [1, 14]: 54 SFU
Significant response as percentage of maximal peptide SFU ([1]; patient Q, max peptide 97 SFU): ′′′ (41-70% = ′′′)
IFN-γ ELISpot response [1, 15]: 34 SFU
Significant response as percentage of maximal peptide SFU ([1]; patient U, max peptide 81 SFU): ′′′ (41-70% = ′′′)
IFN-γ ELISpot response [1, 16]: 34 SFU
Significant response as percentage of maximal peptide SFU ([1]; patient V, max peptide 35 SFU): + (>70% = +)
IFN-γ ELISpot response [1, 17]: 8 SFU
IFN-γ ELISpot response [1, 18]: 6 SFU
Significant response as percentage of maximal peptide SFU [1, 19]: + (>70% = +)
IFN-γ ELISpot response [1, 20]: 18 SFU
Significant response as percentage of maximal peptide SFU ([1]; patient four, max peptide 44 SFU): ′′′ (41-70% = ′′′)
IFN-γ ELISpot response [1, 21]: 4 SFU
IFN-γ ELISpot response [1, 22]: 8 SFU
IFN-γ ELISpot response [1, 23]: 13 SFU
IFN-γ ELISpot response [1, 24]: 17 SFU
IFN-γ ELISpot response [1, 25]: 60 SFU
Significant response as percentage of maximal peptide SFU [1, 26]: + (>70% = +)
Dominance scores 18+ yrs [2]: 35

QPFPQPQQPIPVQ [Peptide W04]
Dominance score 3-5yrs (n = 9) [1]: 44.5
Dominance score 6-10yrs (n = 10) [1]: 44.2
Dominance score 11-18yrs (n = 11) [1]: 47.5
Dominance score Mean all ages [1]: 45.6
Dominance scores 3-5 yrs [1]: 43
Dominance scores 6-10 yrs [1]: 44
Dominance scores 11-18 yrs [1]: 48
Dominance scores Mean all ages [1]: 45
IFN-γ ELISpot response [1, 3]: 1 SFU
Significant response as percentage of maximal peptide SFU [1, 4]: ′′ (21-40% = ′′)
IFN-γ ELISpot response [1, 5]: 51 SFU
Significant response as percentage of maximal peptide SFU ([1]; patient E, max peptide 224 SFU): ′′ (21-40% = ′′)
IFN-γ ELISpot response [1, 6]: 40 SFU
Significant response as percentage of maximal peptide SFU ([1]; patient F, max peptide 178 SFU): ′′ (21-40% = ′′)
IFN-γ ELISpot response [1, 7]: 4 SFU
IFN-γ ELISpot response [1, 8]: 9 SFU
IFN-γ ELISpot response [1, 9]: 4 SFU
IFN-γ ELISpot response [1, 10]: 65 SFU
Significant response as percentage of maximal peptide SFU [1, 11]: ′′′ (41-70% = ′′′)
Significant response as percentage of maximal peptide SFU ([1]; patient J, max peptide 196 SFU): ′′′ (41-70% = ′′′)
Significant response as percentage of maximal peptide SFU ([1]; patient K, max peptide 53 SFU): ′′ (21-40% = ′′)
IFN-γ ELISpot response [1, 12]: 5 SFU
IFN-γ ELISpot response [1, 13]: 21 SFU
IFN-γ ELISpot response [1, 14]: 37 SFU
Significant response as percentage of maximal peptide SFU ([1]; patient Q, max peptide 97 SFU): ′′ (21-40% = ′′)
IFN-γ ELISpot response [1, 15]: 30 SFU
Significant response as percentage of maximal peptide SFU ([1]; patient U, max peptide 81 SFU): ′′ (21-40% = ′′)
IFN-γ ELISpot response [1, 16]: 11 SFU
Significant response as percentage of maximal peptide SFU ([1]; patient V, max peptide 35 SFU): ′′ (21-40% = ′′)
IFN-γ ELISpot response [1, 17]: 3 SFU
IFN-γ ELISpot response [1, 18]: 4 SFU
Significant response as percentage of maximal peptide SFU [1, 19]: + (>70% = +)
IFN-γ ELISpot response [1, 20]: 9 SFU
IFN-γ ELISpot response [1, 21]: 13 SFU
Significant response as percentage of maximal peptide SFU ([1]; patient seven, max peptide 27 SFU): ′′′ (41-70% = ′′′)
IFN-γ ELISpot response [1, 22]: 9 SFU
IFN-γ ELISpot response [1, 23]: 136 SFU
IFN-γ ELISpot response [1, 24]: 12 SFU
IFN-γ ELISpot response [1, 25]: 17 SFU
Significant response as percentage of maximal peptide SFU [1, 26]: ′′ (21-40% = ′′)
Dominance scores 18+ yrs [2]: 31

W05 (QPFPQPEQPFSQQ) [Peptide W05]
Dominance score 3-5yrs (n = 9) [1]: 23.4
Dominance score 6-10yrs (n = 10) [1]: 33.3
Dominance score 11-18yrs (n = 11) [1]: 27.1
Dominance score Mean all ages [1]: 28.6
Dominance scores 3-5 yrs [1]: 23
Dominance scores 6-10 yrs [1]: 33
Dominance scores 11-18 yrs [1]: 27
Dominance scores Mean all ages [1]: 28
Dominance scores 18+ yrs [2]: 15
